# Target: T1, human GLP1R (Homo sapiens, UniProt P43220)
# T1 construct: expressed in transfected cells; host or cells: CHO cells (ATCC), transient transfection with pCMV-human GLP1R
# Experiment: Human GLP-1 receptor transfected cell assay (MRE/CRE-luciferase reporter gene, agonist activity)
# Type: cell-based
# Conditions: 6 h; concentration 1 μM; read-out: Activity (agonist), percentage of the activity of the control
# Description: The glucagon-like peptide I receptor (GLP1R) is a class B Gs-coupled membrane receptor, an agonist of which activates adenylate cyclase (AC) and elevates intracellular cAMP level. In turn, the high content of secondary messengers can activate the cAMP response element binding protein (CREB), which can translocate into nucleus to activate gene transcription.
# A reporter gene based screening assay was established to measure the effect of a compound on GLP1R. In this assay, a compound was incubated with CHO cells transiently transfected with a human GLP1R plasmid and a multiple response element (MRE)/cAMP response element (CRE)-driven luciferase reporter plasmid. Once luciferase was induced by the compound, its specific substrate can be activated to produce light signal for measurement.
# Materials used in this assay included: (i) cell line: Chinese hamster ovary (CHO) cells (ATCC); (ii) fetal bovine serum (FBS) (Biochrom Co.); (iii) culture medium: RPMI1640 (Invitrogen Co.) supplemented with 10% FBS; (iv) LIPOFECTAMINE™ 2000 Reagent (Invitrogen Co.); (v) plasmids: pCMV-human GLP1R and pGL3-1905 reporter plasmid; (vi) GLP1 (7-36 amide) peptide (Sigma Co.); and (vii) BRIGHT-GLO™ Luciferase Assay System (Promega Co.).
# Instruments used in this assay included: (i) Form a carbon dioxide incubator (Thermo Form a Co.); and (ii) Flexstation 3 (Molecular Device Co.).
# Before transfection, CHO cells were plated into a 6-well culture plate at 800,000/2 mL/well, and cultured at 37° C. in 5% CO2 overnight. On the transfection day, cells were transfected with receptor plasmid and reporter plasmid using LIPOFECTAMINE™ 2000 reagent. After 6-hour transfection, cells were digested and seeded into 96-well plates at 20,000/100 μL/well. After 14-16 hour incubation, transfected cells were washed with 100 μL serum-free RPMII 640 medium first, and then added 50 μL of the culture medium. The GLP-1 standard and test compounds were respectively diluted to a series of concentrations, which were then added into the above 96-well culture plate at 50 μL/well. The cells were incubated at 37° C. in 5% CO2 for 6 hrs. The activity of luciferase was detected using BRIGHT-GLO™ Luciferase Analytic System, and the reading was performed with a Flexstation3 plate reader machine.
# T1 sequence (P43220 24-463): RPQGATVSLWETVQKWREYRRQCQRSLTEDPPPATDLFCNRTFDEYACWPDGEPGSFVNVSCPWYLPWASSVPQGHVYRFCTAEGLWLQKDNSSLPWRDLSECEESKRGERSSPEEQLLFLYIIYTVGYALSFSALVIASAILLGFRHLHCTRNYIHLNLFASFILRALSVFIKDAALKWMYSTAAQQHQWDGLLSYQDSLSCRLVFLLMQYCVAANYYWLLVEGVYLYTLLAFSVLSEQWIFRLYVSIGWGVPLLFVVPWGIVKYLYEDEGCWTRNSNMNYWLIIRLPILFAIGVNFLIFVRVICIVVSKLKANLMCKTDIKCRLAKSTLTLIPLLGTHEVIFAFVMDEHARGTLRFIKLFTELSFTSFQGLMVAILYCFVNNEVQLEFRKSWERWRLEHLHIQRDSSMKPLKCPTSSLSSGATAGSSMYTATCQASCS
row,SMILES,activation at 1 µM [%]
1,Cc1ccc(-c2nc(C(=O)NC(Cc3ccc(C#Cc4ccc(NC(=O)OC(C)(C)C)cc4)c(F)c3)C(=O)O)cs2)cc1 (stereo not shown) [Compound 3E],40 to 60
2,CC(C)(C)OC(=O)Nc1ccc(-c2nc(-c3ccc(CC(NC(=O)c4cc(-c5ccc(Cl)cc5F)c[nH]4)C(=O)O)cc3F)no2)cc1 (stereo not shown) [Compound 3L],20 to 40
3,"Cc1ccc(S(=O)(=O)NC(Cc2ccc(-c3noc(-c4ccc(NC(=O)OC(C)(C)C)cc4)n3)c(F)c2)C(=O)O)cc1Cl (stereo not shown) [Compound 3P, 3-{4-[5-(4-tert-Butoxcarbonylamino-phenyl)-[1,2,4]oxadiazol-3-yl]-3-fluorophenyl}-2-(3-chloro-4-methyl-benzenesulfonylamino)-propionic acid]",40 to 60

# Other lines, results leading:
row,activation at 1 µM [%],SMILES
1,20 to 40,CC(C)(C)OC(=O)Nc1ccc(-c2nc(-c3ccc(CC(NS(=O)(=O)c4ccc(Br)c(F)c4)C(=O)O)cc3F)no2)cc1 (stereo not shown) [Compound 3O]
2,20 to 40,CC(C)(C)OC(=O)Nc1ccc(-c2nc(-c3ccc(C[C@@H](NS(=O)(=O)c4ccc(-c5ccccc5)cc4)C(=O)O)cc3F)no2)cc1 [Compound 3Q]
3,> 60,CC1CCN(c2cccc(C(=O)NC(Cc3ccc(-c4noc(-c5ccc(NC(=O)OC(C)(C)C)cc5)n4)c(F)c3)C(=O)O)c2)CC1 (stereo not shown) [Compound 3S]
4,20 to 40,CC(C)(C)OC(=O)Nc1ccc(-c2nc(-c3ccc(CC(NC(=O)c4cccc(NCc5ccccc5)c4)C(=O)O)cc3F)no2)cc1 (stereo not shown) [Compound 3U]
5,40 to 60,CC1CCN(S(=O)(=O)NC(Cc2ccc(-c3noc(-c4ccc(NC(=O)OC(C)(C)C)cc4)n3)c(F)c2)C(=O)O)CC1 (stereo not shown) [Compound 3W]
6,> 60,Cc1cccc(CN2CCN(S(=O)(=O)NC(Cc3ccc(-c4noc(-c5ccc(NC(=O)OC(C)(C)C)cc5)n4)c(F)c3)C(=O)O)CC2)c1 (stereo not shown) [Compound 4C]
7,> 60,Cc1ccc(N2CCN(C(=O)NC(Cc3ccc(-c4noc(-c5ccc(NC(=O)OC(C)(C)C)cc5)n4)c(F)c3)C(=O)O)CC2)cc1 (stereo not shown) [Compound 4D]

# Same assay, conditions: 6 h; concentration 3 μM; read-out: Activity (agonist), percentage of the activity of the control
row,SMILES,activation at 3 µM [%]
1,CC(C)(C)OC(=O)Nc1ccc(-c2nc(-c3ccc(CC(NC(=O)c4cc(-c5ccc(F)cc5)n[nH]4)C(=O)O)cc3F)no2)cc1 (stereo not shown) [Compound 3R],> 60
2,"Cc1ccc(CN2CCN(S(=O)(=O)NC(Cc3ccc(-c4noc(-c5ccc(NC(=O)OC(C)(C)C)cc5)n4)c(F)c3)C(=O)O)CC2)cc1 (stereo not shown) [Compound 3X, 3-{4-[5-(4-tert-Butoxycarbonylamino-phenyl)-[1,2,4]oxadiazol-3-yl]-3-fluoro-phenyl}-2-[4-(4-methyl-benzyl)-piperazine-1-sulfonylamino]-propionic acid]",> 60
3,CC(C)(C)OC(=O)Nc1ccc(C#Cc2ccc(CC(NC(=O)c3cccc(-c4ccc(Cl)cc4)c3)C(=O)O)cc2F)cc1 (stereo not shown) [Compound 4E],20 to 40

# Continued, values first:
row,activation at 3 µM [%],SMILES
1,40 to 60,Cc1cc(-n2cc(C(=O)NC(Cc3ccc(-c4noc(-c5ccc(NC(=O)OC(C)(C)C)cc5)n4)c(F)c3)C(=O)O)cn2)ccc1F (stereo not shown) [Compound 3G]
2,20 to 40,CC(C)(C)OC(=O)Nc1ccc(-c2nc(-c3ccc(CC(NC(=O)c4cn(Cc5ccc(F)cc5)nn4)C(=O)O)cc3F)no2)cc1 (stereo not shown) [Compound 3K]
3,20 to 40,CC(C)(C)OC(=O)Nc1ccc(-c2nc(-c3ccc(CC(NC(=O)c4ccc(N5CCOCC5)cc4)C(=O)O)cc3F)no2)cc1 (stereo not shown) [Compound 3V]
4,> 60,Cc1ccc(N2CCN(S(=O)(=O)NC(Cc3ccc(-c4noc(-c5ccc(NC(=O)OC(C)(C)C)cc5)n4)c(F)c3)C(=O)O)CC2)cc1 (stereo not shown) [Compound 3Z]

# Same assay, conditions: 6 h; concentration 3.16 μM; read-out: Activity (agonist), percentage of the activity of the control
row,SMILES,activation at 3.16 µM [%]
1,CC(C)(C)OC(=O)Nc1ccc(-c2nc(-c3ccc(CC(NC(=O)c4c[nH]c(-c5ccc(Cl)cc5)n4)C(=O)O)cc3F)no2)cc1 (stereo not shown) [Compound 2S],> 60
2,CC(C)(C)OC(=O)Nc1ccc(-c2nc(-c3ccc(CC(NC(=O)c4c[nH]c(-c5ccc(Br)cn5)n4)C(=O)O)cc3F)no2)cc1 (stereo not shown) [Compound 2V],40 to 60
3,CC(C)(C)OC(=O)Nc1ccc(-c2nc(-c3ccc(CC(NC(=O)c4cnn(-c5ccc(F)c(F)c5)c4)C(=O)O)cc3F)no2)cc1 (stereo not shown) [Compound 2Z],> 60
4,CC(C)(C)OC(=O)Nc1ccc(-c2nc(-c3ccc(CC(NC(=O)c4cnn(-c5ccc(C(C)(C)C)cc5)c4)C(=O)O)cc3F)no2)cc1 (stereo not shown) [Compound 3A],> 60
5,Cc1ccc(-n2cc(C(=O)NC(Cc3ccc(-c4noc(-c5ccc(NC(=O)OC(C)(C)C)cc5)n4)c(F)c3)C(=O)O)cn2)cc1F (stereo not shown) [Compound 3B],> 60
6,CC(C)(C)OC(=O)Nc1ccc(-c2nc(-c3ccc(CC(NC(=O)Nc4cc(-c5ccccc5)n[nH]4)C(=O)O)cc3F)no2)cc1 (stereo not shown) [Compound 4G],> 60
7,CC(C)(C)OC(=O)Nc1ccc(-c2nc(-c3ccc(CC(NC(=O)Nc4cc(-c5ccc(Cl)cc5)n[nH]4)C(=O)O)cc3F)no2)cc1 (stereo not shown) [Compound 4I],> 60

# The remaining lines, values ahead:
row,activation at 3.16 µM [%],SMILES
1,> 60,Cn1c(C(=O)NC(Cc2ccc(-c3noc(-c4ccc(NC(=O)OC(C)(C)C)cc4)n3)c(F)c2)C(=O)O)cnc1-c1ccc(Cl)cc1 (stereo not shown) [Compound 2Y]
2,20 to 40,Cc1cc(Cn2cc(C(=O)NC(Cc3ccc(-c4noc(-c5ccc(NC(=O)OC(C)(C)C)cc5)n4)c(F)c3)C(=O)O)cn2)ccc1F (stereo not shown) [Compound 3F]
3,20 to 40,Cc1ccc(S(=O)(=O)NC(C)(Cc2ccc(-c3noc(-c4ccc(NC(=O)OC(C)(C)C)cc4)n3)c(F)c2)C(=O)O)cc1 (stereo not shown) [Compound 3N]
4,40 to 60,CC(C)(C)OC(=O)Nc1ccc(-c2nc(-c3ccc(CC(NS(=O)(=O)N4CCN(c5ccccc5F)CC4)C(=O)O)cc3F)no2)cc1 (stereo not shown) [Compound 4B]
5,40 to 60,CC(C)(C)OC(=O)Nc1ccc(-c2nc(-c3ccc(CC(NC(=O)N4CCN(C(=O)OC(C)(C)C)CC4)C(=O)O)cc3F)no2)cc1 (stereo not shown) [Compound 4F]
6,> 60,CC(C)(C)OC(=O)Nc1ccc(-c2nc(-c3ccc(CC(NC(=O)Nc4ccncc4)C(=O)O)cc3F)no2)cc1 (stereo not shown) [Compound 4H]

# Same assay, conditions: 6 h; concentration 10 μM; read-out: Activity (agonist), percentage of the activity of the control
row,SMILES,activation at 10 µM [%]
1,CC(C)(C)OC(=O)Nc1ccc(-c2nc(-c3ccc(CC(NC(=O)c4cnn(-c5ccc(F)cc5)c4)C(=O)O)cc3F)no2)cc1 (stereo not shown) [Compound 2T],> 60
2,CC(C)(C)OC(=O)Nc1ccc(-c2nc(-c3ccc(CC(NC(=O)c4cc(-c5ccc(F)cc5)no4)C(=O)O)cc3F)no2)cc1 (stereo not shown) [Compound 2U],> 60
3,Cc1ccc(-c2nc(C(=O)NC(Cc3ccc(-c4noc(-c5ccc(NC(=O)OC(C)(C)C)cc5)n4)c(F)c3)C(=O)O)co2)cc1 (stereo not shown) [Compound 2X],> 60
4,CC(C)c1ccc(-n2cnc(C(=O)NC(Cc3ccc(-c4noc(-c5ccc(NC(=O)OC(C)(C)C)cc5)n4)c(F)c3)C(=O)O)n2)cc1 (stereo not shown) [Compound 3D],> 60
5,CC(C)(C)OC(=O)Nc1ccc(-c2nc(-c3ccc(CC(NC(=O)c4coc(-c5ccc(Cl)cc5)n4)C(=O)O)cc3F)no2)cc1 (stereo not shown) [Compound 3H],20 to 40
6,CC(C)(C)OC(=O)Nc1ccc(-c2nc(-c3ccc(CC(NC(=O)c4ncn(-c5ccc(C(C)(C)C)cc5)n4)C(=O)O)cc3F)no2)cc1 (stereo not shown) [Compound 3I],40 to 60
7,CC(C)(C)OC(=O)Nc1ccc(-c2nc(-c3ccc(CC(NC(=O)c4ccn(-c5ccc(C(F)(F)F)cc5)n4)C(=O)O)cc3F)no2)cc1 (stereo not shown) [Compound 3J],40 to 60
8,"CC(C)(C)OC(=O)Nc1ccc(-c2nc(-c3ccc(CC(Nc4ccnc(N5CCCCC5)n4)C(=O)O)cc3F)no2)cc1 (stereo not shown) [Compound 3M, 3-{4-[5-(4-tert-Butoxycarbonylamino-phenyl)-[1,2,4]oxadiazol-3-yl]-3-fluoro-phenyl}-2-(2-piperidin-1-yl-pyrimidin-4-ylamino)-propionic acid]",20 to 40
9,CC(C)(C)OC(=O)Nc1ccc(-c2nc(-c3ccc(CC(NC(=O)c4cccc(Nc5ccccc5)c4)C(=O)O)cc3F)no2)cc1 (stereo not shown) [Compound 3T],40 to 60

# The next lines start with the values.
row,activation at 10 µM [%],SMILES
1,> 60,COc1ccc(Cn2cc(C(=O)NC(Cc3ccc(-c4noc(-c5ccc(NC(=O)OC(C)(C)C)cc5)n4)c(F)c3)C(=O)O)cn2)cc1 (stereo not shown) [Compound 2W]
2,> 60,CC(C)(C)OC(=O)Nc1ccc(-c2nc(-c3ccc(CC(NC(=O)c4cn(Cc5ccc(F)c(F)c5)nn4)C(=O)O)cc3F)no2)cc1 (stereo not shown) [Compound 3C]
3,> 60,CC(C)(C)OC(=O)Nc1ccc(-c2nc(-c3ccc(CC(NS(=O)(=O)N4CCN(c5ccc(C(F)(F)F)cc5)CC4)C(=O)O)cc3F)no2)cc1 (stereo not shown) [Compound 3Y]
4,40 to 60,CC(C)(C)OC(=O)Nc1ccc(-c2nc(-c3ccc(CC(NS(=O)(=O)N4CCN(c5ccc(Cl)cc5)CC4)C(=O)O)cc3F)no2)cc1 (stereo not shown) [Compound 4A]
